SMILES strings stand for the structures.

Series [1] in a line: Particle size of Luc DNA-encapsulated lipid nanoparticles. It counts as physicochemical. The conditions noted are these: cationic lipid:DPPC:cholesterol:GM-020=60:10.6:28:1.4 molar ratio. An excerpt:
The particle size of the lipid particle (in the composition) can be measured by a known approach. For example, the particle size can be calculated as a Z-average particle size by the cumulant analysis of an autocorrelation function using a particle size measurement apparatus Zetasizer Nano ZS (Malvern Instruments) based on a dynamic light scattering measurement technique. The particle size (average particle size) of the lipid particle (in the composition) is, for example, 10 to 200 nm, preferably 60 to 170 nm.
(§1) A lipid mixture containing a cationic lipid of the Examples shown in Table 2 (cationic lipid:DPPC:cholesterol:GM-020=60:10.6:28:1.4, molar ratio) was dissolved in 90% of EtOH and 10% of water to obtain a 15.0 mg/ml lipid solution. Luciferase (luc) DNA (manufactured by Nature Technology Corp.) was dissolved in a 10 mM MES buffer solution (pH 5.5) to obtain a 0.3 mg/ml nucleic acid solution. The obtained lipid solution and nucleic acid solution were mixed at a flow rate ratio of 3 ml/min:6 ml/min at room temperature using NanoAssemblr (manufactured by Precision NanoSystems Inc.) to obtain a dispersion containing Luc DNA-encapsulated lipid nanoparticles. The obtained dispersion was dialyzed against water at room temperature for 1 hour and against PBS at 4° C. for 23 hours using Slyde-A-Lyzer (molecular weight cutoff: 20 K, Thermo Fischer Scientific Inc.). Subsequently, the dialysate was filtered through a 0.2 µm syringe filter (Iwaki). A 60% solution of sucrose in PBS was added thereto, and the mixture was preserved as a 20% solution of sucrose in PBS at −80° C. Analysis results of particle size and rate of encapsulation of the Luc DNA-encapsulated lipid nanoparticles are also shown in Table 2.

The nature of series [2]: Rate of encapsulation of Luc DNA in lipid nanoparticles. It counts as physicochemical. Further details: unit: %. The conditions noted are these: Luc DNA-encapsulated lipid nanoparticles; cationic lipid:DPPC:cholesterol:GM-020=60:10.6:28:1.4 molar ratio.
Excerpt: The concentration and rate of encapsulation of the nucleic acid (e.g., siRNA or mRNA) in the composition of the present invention can be measured by a known approach. For example, the nucleic acid is fluorescently labeled using Quant-iT™ RiboGreen® (Invitrogen Corp.), and the fluorescence intensity can be measured to determine the concentration and the rate of encapsulation. The concentration of the nucleic acid in the composition can be calculated using a calibration curve prepared from aqueous nucleic acid solutions having known concentrations. The rate of encapsulation can be calculated on the basis of the difference in fluorescence intensity between the presence and absence of addition of Triton-X 100 (surfactant for disrupting the lipid particle). The concentration of the nucleic acid in the composition refers to the total concentration of a nucleic acid encapsulated in the lipid particle and an unencapsulated nucleic acid. The rate of encapsulation refers to the ratio of the nucleic acid encapsulated in the lipid particle to all nucleic acids in the composition.
as §1

In series [3] the test system is ICrl:CD1 (ICR) mice. Description: Mouse bioluminescence imaging evaluation (Test Example 1). It counts as in vivo. The conditions noted are these: Luc DNA-encapsulated lipid nanoparticles 10 mL/kg i.v. to ICR mice; IVIS total flux 15 minutes after luciferin i.p. The protocol: The Luc DNA-encapsulated lipid nanopatricles obtained in the aforesaid Production Example were intravenously administered to the tails of ICrl:CD1 (ICR) mice (10 mL/kg i.v.). After administration of the lipid particles, luciferin (15 mg/mL) was administered to the mice (10 mL/kg i.p.), which were loaded in an IVIS (in vivo imaging system) apparatus (manufactured by PerkinElmer, Inc.) under isoflurane inhalation anesthesia. Luminescence images of the mice were taken ventrally (in a supine position) 15 minutes after luciferin administration. The luminescence was digitized with the software of IVIS, followed by evaluation using the value of total flux. Higher luminescence means strong expression of the protein encoded by the DNA encapsulate in the lipid particle. In Table 2, higher luminescence is indicated on a scale of A, B and C in order. A represents luminescence of 3.0E+07 or more, B represents luminescence of 1.0E+0.7 or more and less than 3.0E+07, and C represents luminescence of less than 1.0E+07.

`CCCCCCCOC(=O)CCCCC(=O)OCC(COC(=O)CCN(C)C)(COC(=O)CC(CCCCC)CCCCC)COC(=O)CC(CCCCC)CCCCC` [Example 15, 2-{[(N,N-Dimethyl-beta-alanyl)oxy]methyl}-3-[(3-pentyloctanoyl)oxy]-2-{[(3-pentyloctanoyl)oxy]methyl}propyl heptyl hexanedioate]: the “Particle size (nm)” value in series [1] is 89.5 nm. Besides, the Rate of encapsulation in series [2] is given as 95.9. Besides, the Luminescence result in series [3] is recorded as “C (C represents luminescence of less than 1.0E+07)”.
Consider `CCCCCCCCOC(=O)CCCC(=O)OCC(COC(=O)CCCC(=O)OCCCCCCCC)(COC(=O)CCCN(CC)C(C)C)COC(=O)CC(CCCCC)CCCCC` [Example 101, 1,1′-(2-[({4-[Ethyl(propan-2-yl)amino]butanoyl}oxy)methyl]-2-{[(3-pentyloctanoyl)oxy]methyl}propane-1,3-diyl) 5,5′-dioctyl dipentanedioate], for which the “Particle size (nm)” value in series [1] worked out at 137.2 nm. In series [2], the Rate of encapsulation amounted to 93.2. The Luminescence entry in series [3] is listed as “A (A represents luminescence of 3.0E+07 or more)”.
As for `CCCCCC(CCCCC)CC(=O)OCC(COC(=O)CCCCC(=O)OCCCC)(COC(=O)CCCN(C)C)COC(=O)CC(CCCCC)CCCCC` [Example 20, Butyl 2-({[4-(dimethylamino)butanoyl]oxy}methyl)-3-[(3-pentyloctanoyl)oxy]-2-{[(3-pentyloctanoyl)oxy]methyl}propyl hexanedioate], in series [1], the “Particle size (nm)” value turned out to be 104.2 nm. Besides, in series [2], the Rate of encapsulation turned out to be 97.2. For the same compound, the Luminescence result in series [3] was “B (B represents luminescence of 1.0E+0.7 or more and less than 3.0E+07)”.
In the case of `CCCCCCCCCCC(C(=O)OC)C(=O)OCC(COC(=O)CCCN(C)C)(COC(=O)CC(CCCCC)CCCCC)COC(=O)C(CCCCCCCCCC)C(=O)OC` (stereo not drawn) [Example 134, 1,1′-[2-({[4-(Dimethylamino)butanoyl]oxy}methyl)-2-{[(3-pentyloctanoyl)oxy]methyl}propane-1,3-diyl] 3,3′-dimethyl bis(decylpropanedioate)], the “Particle size (nm)” value in series [1] is 103.0 nm. Moreover, the Rate of encapsulation in series [2] was 94.5. Also, in series [3], the Luminescence entry is “A (A represents luminescence of 3.0E+07 or more)”.
For the compound `CCCCCC(CCCCC)CC(=O)OCC(COC(=O)CCCCCCCC(=O)OCCCC)(COC(=O)CCCCCCCC(=O)OCCCC)COC(=O)CCCN(C)C` [Example 33, 1,1′-Dibutyl 9,9′-[2-({[4-(dimethylamino)butanoyl]oxy}methyl)-2-{[(3-pentyloctanoyl)oxy]methyl}propane-1,3-diyl] dinonanedioate], the “Particle size (nm)” value in series [1] came to 145.7 nm. Also, the Rate of encapsulation in series [2] is reported as 89.9. Further, the Luminescence result in series [3] was “B (B represents luminescence of 1.0E+0.7 or more and less than 3.0E+07)”.
Consider `CCCCCCCOC(=O)CCCCC(=O)OCC(COC(=O)CCCN(CC)CC)(COC(=O)CC(CCCCC)CCCCC)COC(=O)CC(CCCCC)CCCCC` [Example 17, 2-({[4-(Diethylamino)butanoyl]oxy}methyl)-3-[(3-pentyloctanoyl)oxy]-2-{[(3-pentyloctanoyl)oxy]methyl}propyl heptyl hexanedioate], for which the “Particle size (nm)” value in series [1] worked out at 120.7 nm. In addition, the Rate of encapsulation in series [2] is 96.2. In addition, the Luminescence entry in series [3] was “B (B represents luminescence of 1.0E+0.7 or more and less than 3.0E+07)”.
Turning to `CCCCCC(CCCCC)COC(=O)CCC(=O)OCC(COC(=O)CCCCN(C)C)(COC(=O)CCC(=O)OCC(CCCCC)CCCCC)COC(=O)CCC(=O)OCC(CCCCC)CCCCC` [Example 38, 1,1′ {2-({[5-(Dimethylamino)pentanoyl]oxy}methyl)-2-[({4-oxo-4-[(2-pentylheptyl)oxy]butanoyl}oxy)methyl]propane-1,3-diyl} 4,4′-bis(2-pentylheptyl) dibutanedioate], the “Particle size (nm)” value in series [1] worked out at 131.3 nm. For the same compound, the Rate of encapsulation in series [2] was determined as 95.2. The Luminescence result in series [3] was “A (A represents luminescence of 3.0E+07 or more)”.
`CCCCCC(CCCCC)CC(=O)OCC(COC(=O)CCCCC(=O)OCC(CCC)CCC)(COC(=O)CCCCC(=O)OCC(CCC)CCC)COC(=O)CCCN(CC)C(C)C` [Example 116, 1,1′-(2-[({4-[Ethyl(propan-2-yl)amino]butanoyl}oxy)methyl]-2-{[(3-pentyloctanoyl)oxy]methyl}propane-1,3-diyl) 6,6′-bis(2-propylpentyl) dihexanedioate]: the “Particle size (nm)” value in series [1] turned out to be 122.0 nm. Also, in series [2], the Rate of encapsulation was found to be 97.0. Also, the Luminescence result in series [3] was “B (B represents luminescence of 1.0E+0.7 or more and less than 3.0E+07)”.
For the compound `CCCCCCCOC(=O)CCCCC(=O)OCC(COC(=O)CCCCC(=O)OCCCCCCC)(COC(=O)CCCN(C)C)COC(=O)CC(CCCC)CCCC` [Example 84, 1,1′-[2-{[(3-Butylheptanoyl)oxy]methyl}-2-({[4-(dimethylamino)butanoyl]oxy}methyl)propane-1,3-diyl] 6,6′-diheptyl dihexanedioate], the “Particle size (nm)” value in series [1] is 172.6 nm. The Rate of encapsulation in series [2] stood at 93.5. The Luminescence entry in series [3] is “B (B represents luminescence of 1.0E+0.7 or more and less than 3.0E+07)”.
For the compound `CCCCCCCOC(=O)CCCCC(=O)OCC(COC(=O)CCCCC(=O)OCCCCCCC)(COC(=O)CCCN(CC)C(C)C)COC(=O)CC(CCCCC)CCCCC` [Example 91, 1,1′-(2-[({4-[Ethyl(propan-2-yl)amino]butanoyl}oxy)methyl]-2-{[(3-pentyloctanoyl)oxy]methyl}propane-1,3-diyl] 6,6′-diheptyl dihexanedioate], the “Particle size (nm)” value in series [1] is reported as 111.9 nm. Also, the Rate of encapsulation in series [2] stood at 96.5. For the same compound, in series [3], the Luminescence entry is “B (B represents luminescence of 1.0E+0.7 or more and less than 3.0E+07)”.
Regarding `CCCCCCOC(=O)CCCCCC(=O)OCC(COC(=O)CCCCCC(=O)OCCCCCC)(COC(=O)CCCN(C)C)COC(=O)CC(CCCCC)CCCCC` [Example 99, 1,1′-[2-({[4-(Dimethylamino)butanoyl]oxy}methyl)-2-{[(3-pentyloctanoyl)oxy]methyl}propane-1,3-diyl] 7,7′-dihexyl diheptanedioate], the “Particle size (nm)” value in series [1] was 153.8 nm. Moreover, the Rate of encapsulation in series [2] worked out at 92.4. Besides, the Luminescence entry in series [3] is “A (A represents luminescence of 3.0E+07 or more)”.
As to `CCCCCCCCOC(=O)CCCCC(=O)OCC(COC(=O)CCCN(C)C)(COC(=O)CC(CCCCC)CCCCC)COC(=O)CC(CCCCC)CCCCC` [Example 49, 2-({[4-(Dimethylamino)butanoyl]oxy}methyl)-3-[(3-pentyloctanoyl)oxy]-2-{[(3-pentyloctanoyl)oxy]methyl}propyl octyl hexanedioate], the “Particle size (nm)” value in series [1] was found to be 112.8 nm. For the same compound, the Rate of encapsulation in series [2] worked out at 96.0. For the same compound, in series [3], the Luminescence result was “B (B represents luminescence of 1.0E+0.7 or more and less than 3.0E+07)”.
Consider `CCCCCCCOC(=O)CCCCC(=O)OCC(COC(=O)CCCCC(=O)OCCCCCCC)(COC(=O)CCCN(C)C)COC(=O)C(CCCCC)CCCCC` [Example 83, 1,1′-[2-({[4-(Dimethylamino)butanoyl]oxy}methyl)-2-{[(2-pentylheptanoyl)oxy]methyl}propane-1,3-diyl] 6,6′-diheptyl dihexanedioate], for which the “Particle size (nm)” value in series [1] stood at 148.7 nm. Moreover, the Rate of encapsulation in series [2] came to 92.9. Further, the Luminescence entry in series [3] is “B (B represents luminescence of 1.0E+0.7 or more and less than 3.0E+07)”.

Source of the values: patent US20250197343A1, “CATIONIC LIPID” (TAKEDA PHARMACEUTICAL COMPANY LIMITED, priority 2021, published 2025).
